Results reported in patent US20230065562A1, “DUAL CONTROLS FOR THERAPEUTIC CELL ACTIVATION OR ELIMINATION” (Bellicum Pharmaceuticals, Inc., priority 2015, published 2023).

Columns and labels:
293 cells = test: SEAP assay: iMC (tandem FKBP) scaffold plus FRBL2-Caspase-9; format: cell-based; details: tandem FKBPs (iMC) present
Method: FIGS. 16A and 16B are line graphs showing that tandem FKBP scaffold mediates FRBL2. Caspase activation in the presence of rapalogs. FIG. 16A. HEK-293 cells were transfected with 1 μg each of SRα-SEAP reporter plasmid, Δmyr.iMC.2A-anti-CD19.CAR.CD3ζ (pBP0608), and FRBL2. Caspase-9 (pBP0467). […] After ON incubation, cell supernatants were assayed for SEAP activity, as previously described. FIG. 16B. Similar to the experiment described in (FIG. 16A), except that cells were transfected with a membrane-localized (myristoylated) iMC.2A-CD19.CAR.CD3ζ (pBP0609), instead of non-myristoylated Δmyr.iMC.2A-CD19.CAR.CD3ζ (pBP0608).
In a second test for rapalog-mediated scaffold-based activation of Caspase-9, 293 cells were transiently transfected with SRα-SEAP reporter plasmid, plus myristoylated or non-myristoylated inducible iMC co-expressed with 1st generation anti-CD19 CAR, plus FRBL2-fused Caspase-9 (plasmid pBP0467) (FIG. 16).

HPAC PSCA+ tumor cells = test: T cell anti-tumor assay with HPAC-RFP cells (IncuCyte, ELISA); format: cell-based, human; details: 10 nM on day 7 of co-culture
Method: PBMCs from donor 920 were activated and co-transduced with GFP-Ffluc and iMC+CARζ-T (189), i9+CARζ+MC (873), or FwtFRBC9/MC.FvFv (1308)-encoding vectors. […] (A & B) Two days post-seeding, culture supernatants were analyzed for IL-2, IL-6, and IFN-γ production by ELISA. […] Numbers of HPAC-RFP and T cell-GFP at the E:T 1:2 ratio was analyzed using the basic analyzer software for the IncuCyte at day 7 (Ci) and day 8 with 0 nM suicide drug (Cii) and 10 nM suicide drug (Ciii). Similar analysis was also performed at the 1:5 E:T ratio (D). (Note: the y-axis in Ci and Di are at log-scale).
The HPAC PSCA^+ tumor cells were stably labeled with nuclear-localized RFP protein using the NucLight™ Red Lentivirus Reagent (Essen Bioscience, 4625). To set up the coculture, 4000 HPAC-RFP cells were seeded per well of 96-well plates in 100 μl of CTL medium without IL-2 for at least 4 hours to allow tumor cells to adhere. After transduction with the appropriate retrovirus and allowed to rest for at least 7 days in culture, T were seeded according to various E:T ratios to the HPAC-RFP-containing 96-well plates. […] Each plate was set up in duplicates, one plate to monitor with the IncuCyte cell imaging system and one plate for supernatant collection for ELISA assay on day 2. The plates were centrifuged for 5 min at 400×g and placed inside the IncuCyte (Essen Bioscience, Dual Color Model 4459) to monitor red fluorescence (and green fluorescence if T cells were labeled with GFP-Ffluc) every 2-3 hours for a total of 7 days at 10× objective. Image analysis was performed using the “HPAC-RFP_TcellsGFP_10×_MLD” processing definition. On day 7, HPAC-RFP cells were analyzed using the “Red Object Count (1/well)” metric. […] On day 8, Tcell-GFP cells were analyzed using the “Total Green Object Integrated Intensity” metric. Each condition was performed at least in duplicates and each well was imaged at 4 different locations.

[1] = test system: SK-N-SH neuroblastoma cells; test: Trans-well assay, HLA class I on tumor cells; format: cell-based; details: antigen-independent, FIG. 118B
Excerpt: FIG. 118: (A) Trans-well assay set-up. (B) Cytokines secreted by transduced T cells in the top well upregulate HLA class I on the surface of SK-N-SH neuroblastoma cells in an antigen-independent, but iMC- and rimiducid-dependent manner.

[2] = test system: iCasp9-transduced, CD19-selected allodepleted T cells; test: Induction of apoptosis with AP20187 in gene-modified allodepleted T cells (annexin V/7-AAD); format: cell-based, human
Method: Suicide gene functionality was assessed by adding a small molecule synthetic homodimerizer, AP20187 (Ariad Pharmaceuticals; Cambridge, Mass.), at 10 nM final concentration the day following CD19 immunomagnetic selection. Cells were stained with annexin V and 7-amino-actinomycin (7-AAD)(BD Pharmingen) at 24 hours and analyzed by flow cytometry. Cells negative for both annexin V and 7-AAD were considered viable, cells that were annexin V positive were apoptotic, and cells that were both annexin V and 7-AAD positive were necrotic. The percentage killing induced by dimerization was corrected for baseline viability as follows: Percentage killing=100%−(% Viability in AP20187-treated cells÷% Viability in nontreated cells).
Cells were maintained in T cell medium containing 50 U/ml IL-2 until 22 days after transduction. A portion of cells was reactivated on 24-well plates coated with […] OKT3 and 1 µg/ml anti-CD28 (Clone CD28.2, BD Pharmingen, San Jose, Calif.) for 48 to 72 hours. CD19 expression and suicide gene function in both reactivated and non-reactivated cells were measured on day 24 or 25 post transduction.
The day following immunomagnetic selection, 10 nM of the chemical inducer of dimerization, AP20187, was added to induce apoptosis, which appeared within 24 hours. […] Killing efficiency after correction for baseline viability was about 92.9%±3.8%. Large-scale CD19 selection produced cells that were killed with similar efficiency as small-scale selection: mean viability with and without AP20187, and percentage killing, in large and small scale were about 3.9%, about 84.0%, about 95.4% (n=3) and about 6.6%, about 79.3%, about 91.4% (n=5) respectively. AP20187 was non-toxic to non-transduced cells: viability with and without AP20187 was about 86%±9% and 87%±8% respectively (n=6).
To assess the stability of transgene expression and function, cells were maintained in T cell culture medium and low dose IL-2 (50 U/ml) until 24 days after transduction. A portion of cells was then reactivated with OKT3/anti-CD28. CD19 expression was analyzed by flow cytometry 48 to 72 hours later, and suicide gene function was assessed by treatment with 10 nM AP20187. The obtained are for cells from day 5 post transduction (ie, 1 day after CD 19 selection) and day 24 post transduction, with or without 48-72 hours of reactivation (5 experiments). In 2 experiments, CD25 selection was performed after OKT3/αCD28 activation to further enrich activated cells. Error bars represent standard deviation. * indicates p<0.05 when compared to cells from day 5 post transduction. By day 24, surface CD19 expression fell from about 98%±1% to about 88%±4% (p<0.05) with a parallel decrease in mean fluorescence intensity (MFI) from 793±128 to 478±107 (p<0.05) (see FIG. 13B). Similarly, there was a significant reduction in suicide gene function: residual viability was 19.6±5.6% following treatment with AP20187; after correction for baseline viability of 54.8±20.9%, this equated to killing efficiency of only 63.1±6.2%.

[3] = 10 nM AP20187, day after CD19 selection
[4] = day 24 post transduction, non-reactivated
[5] = large-scale CD19 selection (n=3)
[6] = small-scale CD19 selection (n=5)

SMILES	activation of FRBL2-Caspase-9 (293 cells)	reduction of i9+CARζ+MC T cells (HPAC PSCA+ tumor cells)	upregulation of HLA class I on the surface of SK-N-SH cells by cytokines of transduced T cells [1]	killing efficiency after correction for baseline viability [2, 3]	viable cells (annexin V and 7-AAD negative) at 24 hours [2, 3]	killing ([2]; CD25 negative fraction after reactivation)	killing efficiency ([2]; OKT3/αCD28-reactivated cells, day 24 or 25)	killing efficiency ([2]; day 5 post transduction)	killing efficiency [2, 4]	residual viability following AP20187 [2, 4]	apoptosis after treatment with dimerizer ([2]; iCasp9-modified donor T cells)	mean viability with AP20187 [2, 5]	percentage killing [2, 5]	mean viability with AP20187 [2, 6]	percentage killing [2, 6]
CC[C@H](C(=O)N1CCCC[C@H]1C(=O)O[C@H](CCc1ccc(OC)c(OC)c1)c1cccc(OCC(=O)NCCNC(=O)COc2cccc([C@@H](CCc3ccc(OC)c(OC)c3)OC(=O)[C@@H]3CCCCN3C(=O)[C@@H](CC)c3cc(OC)c(OC)c(OC)c3)c2)c1)c1cc(OC)c(OC)c(OC)c1 [rimiducid]	not activated	approximately 50%	rimiducid-dependent	–	–	–	–	–	–	–	–	–	–	–	–
CC[C@H](C(=O)N1CCCC[C@H]1C(=O)O[C@H](CCc1ccc(OC)c(OC)c1)c1cccc(OCC(=O)NCC(CNC(=O)COc2cccc([C@@H](CCc3ccc(OC)c(OC)c3)OC(=O)[C@@H]3CCCCN3C(=O)[C@@H](CC)c3cc(OC)c(OC)c(OC)c3)c2)CN(C)C)c1)c1cc(OC)c(OC)c(OC)c1 [AP20187]	–	–	–	about 92.9%±3.8	about 5.5%±2.5	78.6±9.1%	~84.6%±8.0	93.1±3.5%	63.1±6.2%	19.6±5.6%	> 90%	about 3.9%	about 95.4%	about 6.6%	about 91.4%
